{
  "source": "patent US10724010B2",
  "about": "(The Regents of the University of California, priority 2013, dated 2020)",
  "key": {"[1]": {"tested_on": "Caulobacter strain KR260 (empty plasmid)", "details": "0.5 mM chlorite, 1:1 co-culture with KR3557, 30° C", "protocol": "(§1) Caulobacter crescentus NA 1000 harboring either pJS71 (KR260) or pJS14-xylX::cld (KR3557) were grown in PYE medium supplemented with 0.1% ferrous sulphate/chelate (Sigma # F0518) and 0.3% xylose to induce cld expression. pJS71 is a derivative of the broad-host-range plasmid pBBR1MCS (Kovach, M. E., et al. (1994) Biotechniques 16:800-2), which confers resistance to spectinomycin. […] Samples were withdrawn from each co-culture at the indicated times, diluted, and plated on PYE medium supplemented with 1 μg/ml chloramphenicol or with 100 μg/ml spectinomycin to enumerate survivors of each species.\n(§2) Rather, both strains were co-cultured in PYE medium without selection, samples were taken, and the number of surviving colonies that were resistant to spectinomycin (KR260) or chloramphenicol (KR3557) were counted at the indicated times (FIG. 8)."}, "[2]": {"tested_on": "Caulobacter strain KR3557 (chlorite dismutase expression plasmid)", "details": "0.5 mM chlorite, 1:1 co-culture with KR260, 30° C", "protocol": "as §1, §2"}, "[3]": {"tested_on": "Pseudomonas chloritidismutans", "details": "LB, 60 μM chlorite alone, 37° C", "quoted_text": "(§7) For growth experiments, P. chloritidismutans was grown in LB medium to an OD600 of 0.233 (selected from a dilution series made from an overnight culture). […] Each condition was replicated in six wells of a microtiter plate incubated at 37° C. Optical density (600 nm) was recorded during growth in a plate reader."}, "[4]": {"tested_on": "bacteriophage that attacks Pseudomonas chloritidismutans", "details": "LB, 60 μM chlorite plus phage together, 37° C", "quoted_text": "as §7"}, "[5]": {"tested_on": "Shewanella oneidensis strain MR-1 engineered strain (ICC38)", "details": "aerobic"}, "[6]": {"tested_on": "Caulobacter crescentus NA1000 harboring pJS14-xylX::cld", "details": "PYE with 0.3% xylose", "protocol": "(§3) Wild-type Caulobacter crescentus NA1000 (Marks, M. E., et al. (2010) J. Bacteriol. 192:3678-88) was grown in peptone-yeast extract medium (PYE; see Ely, B. (1991) Methods Enzymol. 204:372-84) supplemented with 0.1% (v/v) ferrous sulphate/chelate solution (Sigma # F0518). The plasmid pJS14 is a derivative of the broad-host-range cloning vector pBBR1MCS (Kovach, M. E., et al. (1994) Biotechniques 16:800-2), which confers resistance to chloramphenicol. To express Cld from pJS14, the cld open reading frame from P. chloritidismutans was placed behind a ˜430 base pair NcoI-EcoRI fragment of the xylX promoter from C. crescentus (Meisenzahl, A. C., et al. (1997) J. Bacteriol. 179:592-600). pJS14-xylX::cld or the empty vector pJS14 was transformed into NA1000 with selection using 1 μg/ml chloramphenicol.\n(§4) The two strains were grown separately in PYE/chloramphenicol/ferrous sulphate supplemented with 0.3% xylose to induce cld expression. […] Each strain/condition was assayed in six individual wells."}, "[7]": {"tested_on": "wild-type Caulobacter crescentus NA1000 harboring pJS14", "details": "PYE with 0.3% xylose", "protocol": "as §3, §4"}, "lytic phage particles": {"tested_on": "lytic phage particles", "details": "culture medium treated with chlorite at 15 mM; cited from earlier work"}, "[8]": {"tested_on": "Azospira suillum strain PS Δcld mutant", "details": "grown aerobically, 40 μM chlorite", "protocol": "(§5) Azospira suillum PS (ATCC BAA-33/DSMZ 13638) was revived from a lab freezer stock and used as the wild-type strain for all genetic manipulations. Various E. coli strains were also used for cloning and conjugation purposes. Prior to all growth curves and genetic manipulations, all strains were streaked out from master freezer stocks to get single colonies.\n(§6) E. coli strains were grown in LB media. Kanamycin (Kan, […]) was used for selection and diaminopimelic acid (DAP, 0.3 mM) was used as a supplement to cultivate the auxotrophic strain WM3064. For routine culturing as well as growth assays, wild-type and mutant strains of PS were grown in ALP media. One liter of ALP media is composed of 0.49 g monobasic sodium phosphate dihydrate, 0.97 g dibasic anhydrous sodium phosphate, 0.1 g potassium chloride, 0.25 g ammonium chloride, 0.82 g sodium acetate, 2.0 g yeast extract, 7.6 g of a 60% w/w sodium lactate solution, 1.10 g sodium pyruvate and 10 mL of both vitamin mix and mineral mix. To make solid ALP media for plates, 15 g/L agar was added. Kanamycin was used for selection of PS mutants at a concentration of […]. For anaerobic growth of PS, ALP media was supplemented with either 5 mM sodium nitrate, 2.5 mM sodium perchlorate, or 5 mM of both sodium nitrate and sodium perchlorate."}, "[9]": {"tested_on": "Azospira suillum strain PS (wild type)", "details": "grown aerobically, 40 μM chlorite", "protocol": "as §5, §6"}, "[10]": {"tested_on": "Shewanella oneidensis strain MR-1 wild type containing an empty expression vector (strain RAM13)", "details": "aerobic"}},
  "note": "Read-outs that look alike come from different tables or passages of the source.",
  "data": [
    {"substance": "chlorite", "values": [
      {"measurement": "growth of KR260 in co-culture", "setting": "[1]", "value": "completely blocked"},
      {"measurement": "growth of KR3557 in co-culture", "setting": "[2]", "value": "slightly reduced rate"},
      {"measurement": "growth of P. chloritidismutans", "setting": "[3]", "value": "did not hinder the growth"},
      {"measurement": "growth of P. chloritidismutans with live phage", "setting": "[4]", "value": "wild-type growth rate"},
      {"measurement": "growth of the recombinantly engineered strain (ICC38)", "setting": "[5]; 250 μM chlorite", "value": "unimpaired"},
      {"measurement": "growth of the recombinantly engineered strain (ICC38)", "setting": "[5]; 1000 μM chlorite", "value": "minimal growth impairment"},
      {"measurement": "growth of Caulobacter expressing chlorite dismutase versus control medium lacking chlorite", "setting": "[6]; 1 mM chlorite", "value": "growing at the same rate"},
      {"measurement": "growth of Caulobacter expressing chlorite dismutase versus control medium lacking chlorite", "setting": "[6]; 4 mM chlorite", "value": "growing at the same rate"},
      {"measurement": "growth of wild-type Caulobacter (pJS14)", "setting": "[7]; 1 mM chlorite", "value": "completely blocked"},
      {"measurement": "growth of wild-type Caulobacter (pJS14)", "setting": "[7]; 4 mM chlorite", "value": "completely blocked"},
      {"measurement": "reduction in lytic phage particles", "setting": "lytic phage particles", "value": "greater than 99%"},
      {"measurement": "growth of the Δcld mutant", "setting": "[8]", "value": "no growth is observed"},
      {"measurement": "growth of the wild type strain", "setting": "[9]", "value": "unimpaired"},
      {"measurement": "growth of the wild type strain (RAM13)", "setting": "[10]; 250 μM chlorite", "value": "significant reduction in the growth rate"},
      {"measurement": "growth of the wild type strain (RAM13)", "setting": "[10]; 1000 μM chlorite", "value": "completely inhibited"}
    ]}
  ]
}
